# Experimental data taken from patent publication US20190374533A1, “COMPOUNDS AND METHODS FOR INHIBITING NHE-MEDIATED ANTIPORT IN THE TREATMENT OF DISORDERS ASSOCIATED WITH FLUID RETENTION OR SALT OVERLOAD AND GASTROINTESTINAL TRACT DISORDERS” (Ardelyx, Inc., priority 2008, published 2019).
# Structures can show the parent of a compound that is named as a salt. Where two headings read alike, the source gives them in different places.
# How the values were obtained:
# [1] = Determination of compound Cmax and AUC; assay type: in vivo; conditions: rat; Sprague-Dawley rats, oral gavage, serum 0.5-4 h; actual oral dose (mg/kg) given
# In short: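 Sprague-Dawley rats dosed orally by gavage at 2.5 mg/kg; serum sampled at 0.5, 1, 2 and 4 h. Acetonitrile protein precipitation, then LC/MS/MS quantitation against a standard curve.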
# [2] = target: T1, rat NHE-3 (Rattus norvegicus, UniProt P26433); assay: Cell-based assay of NHE-3 activity (Pharmacological Test Example 1); conditions: for IC50: read-out: rat NHE-3 Average pIC50 (converted)
# T1 construct: expressed in transfected cells; host or cells: Opossum kidney (OK) cells (ATCC), electroporated
# In short: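 Na+-dependent H+ exchange tracked with the pH-sensitive dye BCECF in opossum kidney cells transiently expressing rat NHE-3. Intracellular acidification by NH4Cl prepulse, then 10 min in ammonium- and Na+-free HEPES, pH 7.4, room temperature. Initial rates averaged over 3-6 replicates give pIC50.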
# [3] = tested on: fecal water content; assay: Pharmacodynamic model: effect of test compounds on fecal water content; assay type: in vivo, rat; conditions: female Sprague Dawley rats, 3 mg/kg oral, feces collected 16 hrs; for % Fecal water: mean of 6
# Description: Normal female Sprague Dawlev rats (Charles-River laboratories international, Hollister, Calif.), 7-8 weeks old with body weight 175-200 g were acclimated for at least 3 days before proceeding to experiments. The animals were provided food (Harlan Teklad 2018c) and water ad lib, through the experiment. Animals were randomly grouped with 6 rats per group.
# The experiments were initiated by orally dosing test compounds at 3 mg/kg in volume of 10 ml/kg. Rats from control group were gavaged with the same volume of vehicle (water). After dosing, rats were placed in metabolic cages for 16 hrs (overnight). Food and water consumption were monitored. After sixteen hours, feces and urine were collected. The percent of fecal water was measured by weighing fecal samples before and after drying.
# Representative data of % fecal water content are shown in Table 12 (data are expressed as means, with 6 animals per data point). The differences between control and treated groups were evaluated by one way ANOVA with Dunnett post tests. Results are significant if p<0.05.
# [4] = human absorption data; cited from earlier work
# [5] = target: NHE-1 (Rattus norvegicus, UniProt P26431); conditions: * = from rat; read-out: IC50 or Ki, NHE-1; cited from earlier work
# [6] = target: NHE-3 (Rattus norvegicus, UniProt P26433); conditions: cited from earlier work
# [7] = target: NHE-1 (Homo sapiens, UniProt P19634); assay: Inhibition of NHE-1, literature data (Table 1), species not marked; assay type: cell-based; conditions: selectivity NHE-1 over NHE-3, from Table 1
# Source text: Shown below are examples of various NHE inhibiting small molecules and their selectivity across the NHE-1, -2 and -3 isoforms. (See, e.g., B. Masereel et al., An Overview of Inhibitors of Na+/H+ Exchanger, European J. of Med. Chem., 38, pp. 547-554 (2003), the entire contents of which is incorporated by reference here for all relevant and consistent purposes). […] It is thus possible to engineer NHE-3 selectivity into a chemical series optim/zed for potency against another antiporter isoform; that is, the inhibitor classes exemplified in the art may be suitably modified for activity and selectivity against NHE-3 (or alternatively NHE-2 and/or NHE-8), as well as being modified to be rendered substantially impermeable or substantially systemically non-bioavailable.
# [8] = tested on: urinary sodium levels; assay: Pharmacodynamic model: effect of test compounds on urinary sodium levels; assay type: in vivo, rat; conditions: rats, several oral dose levels, corrected for sodium intake (FIGS. 3A and 3B)
# Description: It is anticipated that the reduction of absorption of sodium from the intestine will be reflected in reduced levels of sodium in the urine. To test this, the protocols in Example 13 were repeated, but urine was collected in addition to feces. Urine sodium levels were analyzed by ion chromatography (IC), and the amound of sodium excreted in the urine was corrected for variations in sodium intake by measuring food consumption.
# [9] = tested on: gastrointestinal motility; assay: Restoration of gastrointestinal motility in opioid induced constipation (loperamide); assay type: in vivo, mice; conditions: vehicle oral / loperamide s.c. (0.3 to 6 mg/kg), 30-minute period
# [10] = OK cells expressing rat NHE-3, 0-30 uM test compound, 5 uM EIPA
# T1 sequence (P26433 29-831): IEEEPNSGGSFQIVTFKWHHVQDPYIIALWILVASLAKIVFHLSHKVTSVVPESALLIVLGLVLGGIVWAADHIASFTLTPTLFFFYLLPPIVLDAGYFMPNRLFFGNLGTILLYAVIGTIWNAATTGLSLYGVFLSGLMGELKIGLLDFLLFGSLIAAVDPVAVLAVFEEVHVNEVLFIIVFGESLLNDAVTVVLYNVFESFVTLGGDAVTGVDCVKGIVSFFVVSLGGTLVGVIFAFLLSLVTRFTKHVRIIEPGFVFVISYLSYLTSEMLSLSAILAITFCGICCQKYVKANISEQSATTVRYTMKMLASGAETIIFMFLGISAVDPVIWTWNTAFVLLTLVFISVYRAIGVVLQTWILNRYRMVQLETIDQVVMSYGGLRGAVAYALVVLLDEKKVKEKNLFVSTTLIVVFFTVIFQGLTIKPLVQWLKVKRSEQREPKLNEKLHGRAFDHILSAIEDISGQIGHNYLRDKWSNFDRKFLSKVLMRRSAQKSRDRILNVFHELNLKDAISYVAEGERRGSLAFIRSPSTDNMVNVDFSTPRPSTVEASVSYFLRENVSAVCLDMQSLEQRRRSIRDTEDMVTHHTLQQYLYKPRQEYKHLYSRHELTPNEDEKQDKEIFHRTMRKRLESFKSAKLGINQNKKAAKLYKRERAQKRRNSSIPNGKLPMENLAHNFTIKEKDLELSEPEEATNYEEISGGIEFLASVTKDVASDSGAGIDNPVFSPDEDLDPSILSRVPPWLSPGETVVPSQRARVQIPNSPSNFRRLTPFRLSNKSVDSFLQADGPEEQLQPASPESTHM
# Sequence of NHE-1 (Homo sapiens, UniProt P19634) (P19634 whole entry, species assumed, canonical isoform): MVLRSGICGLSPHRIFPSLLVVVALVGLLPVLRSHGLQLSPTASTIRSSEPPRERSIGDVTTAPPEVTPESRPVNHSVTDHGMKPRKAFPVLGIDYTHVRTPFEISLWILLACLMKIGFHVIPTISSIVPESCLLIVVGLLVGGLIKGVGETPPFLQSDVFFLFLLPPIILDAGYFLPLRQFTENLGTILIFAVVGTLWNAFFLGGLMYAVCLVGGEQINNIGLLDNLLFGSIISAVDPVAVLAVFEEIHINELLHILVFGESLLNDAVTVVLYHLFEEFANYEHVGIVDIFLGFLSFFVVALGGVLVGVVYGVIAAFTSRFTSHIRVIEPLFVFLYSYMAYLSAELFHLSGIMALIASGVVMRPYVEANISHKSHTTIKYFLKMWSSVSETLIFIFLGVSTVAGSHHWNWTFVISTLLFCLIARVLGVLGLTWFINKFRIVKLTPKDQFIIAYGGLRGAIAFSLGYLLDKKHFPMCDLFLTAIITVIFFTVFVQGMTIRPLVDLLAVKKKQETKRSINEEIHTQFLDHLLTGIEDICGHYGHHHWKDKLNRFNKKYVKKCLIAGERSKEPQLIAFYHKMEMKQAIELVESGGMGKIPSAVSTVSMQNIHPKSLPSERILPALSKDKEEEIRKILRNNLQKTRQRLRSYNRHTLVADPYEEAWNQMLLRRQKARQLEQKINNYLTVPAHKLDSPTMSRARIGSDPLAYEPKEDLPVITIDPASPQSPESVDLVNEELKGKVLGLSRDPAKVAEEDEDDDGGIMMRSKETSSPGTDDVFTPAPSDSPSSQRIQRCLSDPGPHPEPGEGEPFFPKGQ
# Sequence of NHE-3 (P26433 29-831): as the sequence (P26433 29-831) above
# Sequence of NHE-1 (Rattus norvegicus, UniProt P26431) (P26431 whole entry): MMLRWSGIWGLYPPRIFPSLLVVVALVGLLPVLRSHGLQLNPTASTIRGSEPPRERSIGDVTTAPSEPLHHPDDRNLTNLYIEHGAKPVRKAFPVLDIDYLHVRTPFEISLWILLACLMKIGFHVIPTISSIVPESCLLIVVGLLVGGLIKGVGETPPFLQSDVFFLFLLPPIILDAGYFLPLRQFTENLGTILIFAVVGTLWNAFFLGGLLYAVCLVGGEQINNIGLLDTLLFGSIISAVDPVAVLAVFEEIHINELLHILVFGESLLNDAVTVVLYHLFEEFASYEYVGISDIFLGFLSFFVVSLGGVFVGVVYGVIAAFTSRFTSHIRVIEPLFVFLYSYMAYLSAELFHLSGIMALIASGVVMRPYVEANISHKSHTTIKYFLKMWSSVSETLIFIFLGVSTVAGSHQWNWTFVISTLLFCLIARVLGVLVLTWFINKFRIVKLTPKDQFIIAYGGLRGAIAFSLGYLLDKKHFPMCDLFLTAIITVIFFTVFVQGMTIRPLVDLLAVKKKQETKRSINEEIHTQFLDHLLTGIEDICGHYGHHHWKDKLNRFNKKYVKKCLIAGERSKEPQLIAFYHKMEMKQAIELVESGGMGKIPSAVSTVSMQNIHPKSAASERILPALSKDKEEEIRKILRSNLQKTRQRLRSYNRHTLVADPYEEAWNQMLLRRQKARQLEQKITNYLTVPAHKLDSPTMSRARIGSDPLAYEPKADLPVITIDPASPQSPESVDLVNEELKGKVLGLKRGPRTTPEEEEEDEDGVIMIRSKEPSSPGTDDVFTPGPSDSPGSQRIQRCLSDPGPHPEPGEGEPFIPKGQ
compound,measurement,setting,value
"CN1Cc2c(Cl)cc(Cl)cc2C(c2ccc(S(=O)(=O)NCCOCCOCCNC(=O)COCC(=O)NCCOCCOCCNS(=O)(=O)c3ccc(C4CN(C)Cc5c(Cl)cc(Cl)cc54)cc3)cc2)C1 (stereo not drawn) [Example 178, 2,2′-oxybis(N-(2-(2-(2-(4-(6,8-dichloro-2-methyl-1,2,3,4-tetrahydroisoquinolin-4-yl)phenylsulfonamido)ethoxy)ethoxy)ethyl)acetamide)]",AUC,[1],< 2 ng·h/mL
same,Cmax,[1],< 2 ng/mL
same,rat NHE-3 Average pIC50,[2]; [10],6 to 7
same,% Fecal water (% of control),[3],118% of control
same,% Fecal water,[3],59%
C=CCOc1ccccc1OCC(O)CNC(C)C (stereo not drawn) [oxprenolol],% FA,[4],97%
"N=C(N)NC(=O)c1nc(Cl)c(N)nc1N [Amiloride, amiloride]",IC50,[5],1000 to 1600 nM
same,IC50,"[6]; * = from rat, read-out: IC50 or Ki, NHE-3",> 100000 nM
same,IC50,"[6]; as restated in the text on Table 1, read-out: NHE-3 IC50",> 100000 nM
C=CCc1ccccc1OCC(O)CNC(C)C (stereo not drawn) [alprenolol],% FA,[4],96%
Cc1cc(=O)n(-c2ccccc2)n1C [phenazone],% FA,[4],97%
"OC[C@H]1O[C@@H](O[C@@H]2[C@@H](CO)OC(O)(CO)[C@H]2O)[C@H](O)[C@@H](O)[C@H]1O (mixture of isomers) [lactulose, reference compound]",% FA,[4],0.6%
"C/C(=C\c1cc(C)ccc1/C=C(\C)C(=O)NC(=N)N)C(=O)N=C(N)N [Example S-3226, S-3226]",fold more active against NHE-1 than NHE-3,[7],reversed
CCN1CCCC1CNC(=O)c1cc(S(N)(=O)=O)ccc1OC (stereo not drawn) [sulpiride],% FA,[4],36%
"C/C(=C\c1cccc(/C=C(\C)C(=O)NC(=N)N)c1)C(=O)N=C(N)N [Example S-2120, S-2120]",fold more active against NHE-1 than NHE-3,[7],over 500 fold
"Cc1ccccc1N1C(=O)c2cc(S(N)(=O)=O)c(Cl)cc2NC1C (stereo not drawn) [metolazone, Metolazone, reference compound]",% FA,[4],64%
"CN1Cc2c(Cl)cc(Cl)cc2C(c2ccc(S(=O)(=O)NCCOCCOCCNC(=O)CCC(=O)NCCOCCOCCNS(=O)(=O)c3ccc(C4CN(C)Cc5c(Cl)cc(Cl)cc54)cc3)cc2)C1 (stereo not drawn) [Example 177, N1,N4-bis(2-(2-(2-(4-(6,8-dichloro-2-methyl-1,2,3,4-tetrahydroisoquinolin-4-yl)phenylsulfonamido)ethoxy)ethoxy)ethyl)succinamide]",AUC,[1],< 4 ng·h/mL
same,Cmax,[1],< 3.2 ng/mL
same,rat NHE-3 Average pIC50,[2],>7
same,% Fecal water (% of control),[3],121% of control
same,% Fecal water,[3],60%
NC[C@H]1CC[C@H](C(=O)O)CC1 [tranexamic acid],% FA,[4],55%
"O=C(O)c1cc(/N=N/c2ccc(S(=O)(=O)Nc3ccccn3)cc2)ccc1O [sulfasalazine, reference compound]",% FA,[4],12%
"CN1Cc2c(Cl)cc(Cl)cc2[C@H](c2ccc(S(=O)(=O)NCCOCCOCCNC(=O)COCC(=O)NCCOCCOCCNS(=O)(=O)c3ccc([C@@H]4CN(C)Cc5c(Cl)cc(Cl)cc54)cc3)cc2)C1 (single isomer, unassigned) [Example 201, 2,2′-oxybis(N-(2-(2-(2-(4-((S or R)-6,8-dichloro-2-methyl-1,2,3,4-tetrahydroisoquinolin-4-yl)phenylsulfonamido)ethoxy)ethoxy)ethyl)acetamide) bis-hydrochloride salt]",amount of sodium excreted in the urine,[8],diminishes significantly and dose dependently
same,IC50,[2]; [10],< 100 nM
same,% Fecal water (% of control),[3],127% of control
same,% Fecal water,[3],63%
"OC[C@@H](O)[C@@H](O)[C@H](O)[C@H](O)CO [mannitol, Mannitol, reference compound]",% FA,[4],26%
"CN(C)C(=O)C(CCN1CCC(O)(c2ccc(Cl)cc2)CC1)(c1ccccc1)c1ccccc1 [loperamide, reference compound]",length of the small intestine travelled by the Evans Blue dye front,[9],~25%
"CN1Cc2c(Cl)cc(Cl)cc2C(c2cccc(S(=O)(=O)NCCOCCOCCNC(=O)c3ccc(C(=O)NCCOCCOCCNS(=O)(=O)c4cccc(C5CN(C)Cc6c(Cl)cc(Cl)cc65)c4)cc3)c2)C1 (stereo not drawn) [Example 234, N1,N4-bis(2-(2-(2-(3-(6,8-dichloro-2-methyl-1,2,3,4-tetrahydroisoquinolin-4-yl)phenylsulfonamido)ethoxy)ethoxy)ethyl)terephthalamide]",AUC,[1],< 2 ng·h/mL
same,Cmax,[1],< 2 ng/mL
same,rat NHE-3 Average pIC50,[2],5 to 6
same,% Fecal water (% of control),[3],117% of control
same,% Fecal water,[3],58%
"CN1Cc2c(Cl)cc(Cl)cc2[C@H](c2cccc(S(=O)(=O)NCCOCCOCCOCCNC(=O)NCCCCNC(=O)NCCOCCOCCOCCNS(=O)(=O)c3cccc([C@@H]4CN(C)Cc5c(Cl)cc(Cl)cc54)c3)c2)C1 (single isomer, unassigned) [Example 244, (S or R)—N,N′-(13,20-dioxo-3,6,9,24,27,30-hexaoxa-12,14,19,21-tetraazadotriacontane-1,32-diyl)bis(3-((S or R)-6,8-dichloro-2-methyl-1,2,3,4-tetrahydroisoquinolin-4-yl)benzenesulfonamide)]",AUC,[1],< 15 ng·h/mL
same,Cmax,[1],< 7 ng/mL
same,amount of sodium excreted in the urine,[8],diminishes significantly and dose dependently
same,IC50,[2]; [10],< 100 nM
same,% Fecal water (% of control),[3],118% of control
same,% Fecal water,[3],61%
OC[C@H]1O[C@H](OC[C@H]2O[C@H](O[C@]3(CO)O[C@H](CO)[C@@H](O)[C@@H]3O)[C@H](O)[C@@H](O)[C@@H]2O)[C@H](O)[C@@H](O)[C@H]1O [raffinose],% FA,[4],0.3%
O=C(O)c1cc(/N=N/c2ccc(O)c(C(=O)O)c2)ccc1O [olsalazine],% FA,[4],2.3%
O=C(O)P(=O)(O)O [foscarnet],% FA,[4],17%
"CN1Cc2c(Cl)cc(Cl)cc2[C@H](c2ccc(S(=O)(=O)NCCOCCOCCOCCNC(=O)NCCOCCOCCOCCNS(=O)(=O)c3ccc([C@@H]4CN(C)Cc5c(Cl)cc(Cl)cc54)cc3)cc2)C1 (single isomer, unassigned) [Example 250, (S or R)—N,N′-(13-oxo-3,6,9,17,20,23-hexaoxa-12,14-diazapentacosane-1,25-diyl)bis(4-((S or R)-6,8-dichloro-2-methyl-1,2,3,4-tetrahydroisoquinolin-4-yl)benzenesulfonamide)]",IC50,[2],< 100 nM
same,% Fecal water (% of control),[3],120% of control
same,% Fecal water,[3],60%
CC(C)NCC(O)COc1cccc2[nH]ccc12 (stereo not drawn) [pindolol],% FA,[4],92%
CC(=O)Nc1ccc(OCC(O)CNC(C)C)cc1 (stereo not drawn) [practolol],% FA,[4],95%
